What was measured:
Stat3 = Stat3 (Homo sapiens, UniProt P40763); assay: IL-6-induced nuclear translocation of Stat3 in DU145 cells (immunofluorescence); assay type: cell-based; parameters: endogenous in cells; host or cells: DU145; conditions: 2 hours pretreatment, 10 nmol/L IL-6 30 minutes
Protocol: DU145 prostate cancer cells were pretreated with N6BAP or vehicle (DMSO) for 2 hours and then stimulated with 10 nmol/L IL-6 for 30 minutes. Cells were fixed with 100% methanol for 15 min and subsequently permeabilized with 0.1% Triton X-100 in PBS (pH 7.4). After blocking with 2% bovine serum albumin in PBS, cells were incubated with an antibody specific for Stat3 at 4° C. for 2 hours. Cells were then washed with PBS and incubated with FITC-conjugated secondary antibody (Jackson ImmunoResearch) at room temperature for 1 hour. The images were taken by using an inverted fluorescence microscopy (Carl Zeiss).

Stat5a/b = assay: Clinical prostate cancers ex vivo in explant organ cultures: nuclear Stat5a/b immunohistochemistry; assay type: cell-based, human; conditions: 7 days, N6BAP 5, 10, 25, 50 and 100 μM; C5 100 m
Protocol: The specimens comprised de-identified excess tissue obtained after the completion of pathology diagnosis. A zero-sample prior to organ culture was formalin-fixed for each individual prostate cancer for the analysis of the nuclear Stat5a/b status. The prostate organ cultures were performed as described earlier (Ahonen et al., Endocrinology (2002), 143:228-238). Briefly, prostate cancer tissue was cut into approximately 1 mm^3 pieces in a plain culture medium and transferred onto lens papers lying on stainless steel grids in petri dishes. The medium was phenol-free medium 199 with Earle's salts (Sigma) containing dialyzed 5% fetal calf serum, G-penicillin (100 IU/ml), streptomycin sulfate ([…]), and glutamine (100 μg/ml). […] Tissue explants were cultured in a medium containing the N6BAP or control compound C5 at indicated concentrations (C5: […]; N6BAP: 5, 10, 25, 50 and 100 μM) 7 days, after which the explants were fixed in formalin and analyzed for Stat5a/b activation and viability of prostate cancer epithelial compartment. Viability of the epithelial cells in the prostate cancer explants at the end of the cultures were scored by counting the viable epithelial cells per explant.
Nuclear Stat5a/b indexes were determined by counting the Stat5-positive cells per 500 epithelial cells in the cultured explants in each treatment group.

Stat5a = molecular target: T1, Stat5a (Homo sapiens, UniProt P42229); assay: Stat5 dimerization assay (FLAG-/MYC-tagged Stat5a co-immunoprecipitation) in PC-3 cells; assay type: cell-based; parameters: expressed in transfected cells; host or cells: PC-3; conditions: 2 hours pretreatment, hPrl 10 nM 30 minutes
T1 sequence (P42229 1-794): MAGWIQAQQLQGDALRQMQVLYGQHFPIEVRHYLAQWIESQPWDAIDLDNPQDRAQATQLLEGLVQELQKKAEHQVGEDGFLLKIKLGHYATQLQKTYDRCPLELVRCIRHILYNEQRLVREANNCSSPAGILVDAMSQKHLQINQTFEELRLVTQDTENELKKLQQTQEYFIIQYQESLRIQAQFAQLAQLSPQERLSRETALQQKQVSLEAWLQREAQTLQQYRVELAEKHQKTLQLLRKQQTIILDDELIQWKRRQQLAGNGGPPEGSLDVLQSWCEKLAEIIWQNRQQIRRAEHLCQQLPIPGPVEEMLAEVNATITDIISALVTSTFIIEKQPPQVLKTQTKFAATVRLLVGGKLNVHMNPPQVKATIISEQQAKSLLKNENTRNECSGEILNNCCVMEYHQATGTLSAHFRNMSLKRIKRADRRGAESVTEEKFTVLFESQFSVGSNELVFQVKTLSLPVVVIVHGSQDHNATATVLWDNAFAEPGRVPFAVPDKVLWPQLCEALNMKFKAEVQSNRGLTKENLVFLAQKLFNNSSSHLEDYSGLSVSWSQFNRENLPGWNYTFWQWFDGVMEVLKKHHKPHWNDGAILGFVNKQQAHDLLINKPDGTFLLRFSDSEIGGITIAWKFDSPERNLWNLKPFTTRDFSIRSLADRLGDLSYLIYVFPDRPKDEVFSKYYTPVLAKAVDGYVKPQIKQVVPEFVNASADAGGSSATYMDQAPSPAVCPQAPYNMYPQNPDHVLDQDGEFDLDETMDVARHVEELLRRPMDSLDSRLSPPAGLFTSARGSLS
Protocol: FLAG-tagged Stat5a and MYC-tagged Stat5a were generated as follows. Plasmid pCMV3-FLAG-Stat5a, pCMV3-MYC-Stat5a and pPrlR were co-transfected using FuGENE6 (Roche) into PC-3 cells (2 μg of each plasmid per 1×10^7 cells). The cells were starved for 20 hours, pretreated with N6BAP for 2 hours, then stimulated with hPrl (10 nM) in RPMI 1640 without serum for 30 minutes. The cell lysates were immunoprecipitated with 25 μl anti-FLAG M2 […] affinity gel (2 μg/ml, Sigma), anti-MYC pAb (1 μg/ml, Upstate) or normal rabbit serum (NRS). The primary antibodies were used in the immunoblottings at the following concentrations: anti-FLAG pAb (1:1000; Stratagene), anti-MYC mAb (1:1000; Sigma), anti-Stat5a/b mAb (1:250) (Transduction Laboratories) detected by horseradish peroxidase-conjugated secondary antibodies.
Lanes 1, 2, 4, 6, 8, 10, 12, 14 and 16 represent cells stimulated with human prolactin (Prl) for 30 minutes which induces dimerization of Stat5. Two hours prior to Prl-stimulation, the cells had been treated with DMSO (lanes 1-4), the control compound C5 (lanes 5 and 6) or N6BAP (lanes 7-16) to test whether the Stat5a/b-inhibitor compound, N6BAP, would be able to inhibit dimerization of Stat5. […] It should be noted the drug effect in this study was not due to cell apoptosis induction, as the treatment time was only 2 hours. […]

Sequence of Stat3 (P40763 whole entry, species assumed): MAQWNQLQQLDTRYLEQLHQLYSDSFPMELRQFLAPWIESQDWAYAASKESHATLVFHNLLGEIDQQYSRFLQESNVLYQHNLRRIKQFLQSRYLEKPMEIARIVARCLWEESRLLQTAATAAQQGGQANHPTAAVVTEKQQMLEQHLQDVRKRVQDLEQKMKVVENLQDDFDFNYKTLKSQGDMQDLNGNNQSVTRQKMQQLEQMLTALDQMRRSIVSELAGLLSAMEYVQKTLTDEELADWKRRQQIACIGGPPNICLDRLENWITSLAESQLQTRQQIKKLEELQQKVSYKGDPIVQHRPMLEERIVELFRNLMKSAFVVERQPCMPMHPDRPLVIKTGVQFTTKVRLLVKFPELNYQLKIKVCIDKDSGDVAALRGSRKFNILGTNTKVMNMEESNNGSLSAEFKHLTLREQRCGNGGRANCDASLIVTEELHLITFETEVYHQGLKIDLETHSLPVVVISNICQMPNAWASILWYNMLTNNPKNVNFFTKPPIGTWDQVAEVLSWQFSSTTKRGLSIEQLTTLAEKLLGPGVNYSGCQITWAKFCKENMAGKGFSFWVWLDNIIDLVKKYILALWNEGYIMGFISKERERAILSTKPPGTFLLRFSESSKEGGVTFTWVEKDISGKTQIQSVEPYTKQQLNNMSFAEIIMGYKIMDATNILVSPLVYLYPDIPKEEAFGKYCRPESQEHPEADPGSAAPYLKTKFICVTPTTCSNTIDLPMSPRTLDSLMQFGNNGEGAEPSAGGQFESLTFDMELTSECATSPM

| dimerization of Stat5a (Stat5a) | Compound | nuclear translocation of IL-6-induced Stat3 (Stat3) | nuclear Stat5 expression in explant organ cultures (Stat5a/b) |
| --- | --- | --- | --- |
|  | Cc1cc(Nc2nc(N[C@@H](C)c3ncc(F)cn3)ncc2Cl)n[nH]1 [AZD1480, reference compound] | blocks nuclear translocation of IL-6-induced Stat3 efficiently |  |
| did not inhibit dimerization of Stat5a | Nc1nc(SCc2cccnc2)[nH]c(=O)c1NC(=O)c1ccco1 [C5, reference compound] |  | Intensive positive immunostaining for nuclear Stat5 |

Source: patent publication US20160038526A1, “TREATMENT OF PROSTATE CANCER” (THOMAS JEFFERSON UNIVERSITY, priority 2012, published 2016)
